# Data as given in PubChem BioAssay (NCI).
#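 Where inhibition never reached the appropriate level, the endpoint shown equals the highest concentration tested. Otherwise, values were interpolated linearly from a five-concentration, 48-hour dose response in 96-well plates. At the GI50, growth is halved. At the TGI there is no net growth.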
# Experiments:
# Test in all cases: growth of human tumour cells (NCI), 48 h
# [1] = system: HCT-15 colon
# [2] = system: T-47D breast
# [3] = system: TK-10 renal
# [4] = system: DU-145 prostate
# [5] = system: SNB-19 CNS
# [6] = system: SF-268 CNS
# [7] = system: OVCAR-4 ovarian
# [8] = system: CCRF-CEM leukemia
# [9] = system: HCT-116 colon
# [10] = system: RPMI-8226 leukemia
# [11] = system: SF-295 CNS
# [12] = system: SK-MEL-28 melanoma
# [13] = system: OVCAR-5 ovarian
# [14] = system: SK-OV-3 ovarian
# [15] = system: M14 melanoma
# [16] = system: SR leukemia
# [17] = system: MOLT-4 leukemia
# [18] = system: UO-31 renal
# [19] = system: RXF 393 renal
# [20] = system: A498 renal
# [21] = system: SK-MEL-2 melanoma
# [22] = system: U251 CNS
# [23] = system: HL-60(TB) leukemia
# [24] = system: LOX IMVI melanoma
# [25] = system: 786-0 renal
# [26] = system: SW-620 colon
# [27] = system: NCI-H23 lung
# [28] = system: BT-549 breast
# [29] = system: A549 NSCLC
# [30] = system: CAKI-1 renal
# [31] = system: KM12 colon
# [32] = system: NCI/ADR-RES ovarian
# [33] = system: UACC-62 melanoma
# [34] = system: SK-MEL-5 melanoma
# [35] = system: MALME-3M melanoma
# [36] = system: NCI-H226 lung
# [37] = system: HOP-92 NSCLC
# [38] = system: NCI-H522 lung
# [39] = system: IGROV1 ovarian
# [40] = system: EKVX NSCLC
# [41] = system: ACHN renal
# [42] = system: MCF7 breast
# [43] = system: HT29 colon
# [44] = system: K-562 leukemia
# [45] = system: SN12C renal
# [46] = system: HS 578T breast
# [47] = system: MDA-MB-231 breast
# [48] = system: NCI-H460 lung
# [49] = system: UACC-257 melanoma
# [50] = system: SNB-75 CNS
# [51] = system: HCC-2998 colon
# [52] = system: MDA-MB-435
# [53] = system: PC-3 prostate
# [54] = system: HOP-62 NSCLC
# [55] = system: SF-539 CNS
# [56] = system: OVCAR-3 ovarian
# [57] = system: COLO 205 colon
# [58] = system: OVCAR-8 ovarian
smiles,measurement,setting,value
C#Cc1nc(C2=C(C)C(OC(C)=O)/C(=N/OC(C)=O)C2)cs1 (stereo not given),GI50,[1],6.21 µM
same,TGI,[1],23.8 µM
same,GI50,[2],7.49 µM
same,TGI,[2],30.4 µM
same,GI50,[3],28.3 µM
same,TGI,[3],56.9 µM
same,GI50,[4],11.5 µM
same,TGI,[4],> 70.3 µM
same,GI50,[5],> 59.5 µM
same,TGI,[5],> 100 µM
same,GI50,[6],9.78 µM
same,TGI,[6],45.7 µM
same,GI50,[7],6.65 µM
same,TGI,[7],22.1 µM
same,GI50,[8],0.188 µM
same,TGI,[8],0.478 µM
same,GI50,[9],13.5 µM
same,TGI,[9],30.4 µM
same,GI50,[10],0.312 µM
same,TGI,[10],1.17 µM
same,GI50,[11],1.84 µM
same,TGI,[11],3.67 µM
same,GI50,[12],17.1 µM
same,TGI,[12],39 µM
same,GI50,[13],7.36 µM
same,TGI,[13],> 41.9 µM
same,GI50,[14],6.16 µM
same,TGI,[14],20.6 µM
same,GI50,[15],21.3 µM
same,TGI,[15],> 80 µM
same,GI50,[16],0.228 µM
same,TGI,[16],0.649 µM
same,GI50,[17],1.85 µM
same,TGI,[17],4.69 µM
same,GI50,[18],0.164 µM
same,TGI,[18],0.299 µM
same,GI50,[19],2.62 µM
same,TGI,[19],6.03 µM
same,GI50,[20],27.1 µM
same,TGI,[20],50.4 µM
same,GI50,[21],27.6 µM
same,TGI,[21],> 69.7 µM
same,GI50,[22],4.58 µM
same,TGI,[22],> 26.9 µM
same,GI50,[23],0.587 µM
same,TGI,[23],1.32 µM
same,GI50,[24],0.0198 µM
same,TGI,[24],0.0453 µM
same,GI50,[25],1.83 µM
same,TGI,[25],3.33 µM
same,GI50,[26],13.3 µM
same,TGI,[26],30.4 µM
same,GI50,[27],1.26 µM
same,TGI,[27],4.86 µM
same,GI50,[28],5.65 µM
same,TGI,[28],13 µM
same,GI50,[29],5.39 µM
same,TGI,[29],> 100 µM
same,GI50,[30],4.66 µM
same,TGI,[30],11.7 µM
same,GI50,[31],47.4 µM
same,TGI,[31],> 100 µM
same,GI50,[32],4.98 µM
same,TGI,[32],> 21.3 µM
same,GI50,[33],13.7 µM
same,TGI,[33],29.4 µM
same,GI50,[34],19.5 µM
same,TGI,[34],56.1 µM
same,GI50,[35],1.81 µM
same,TGI,[35],4.86 µM
same,GI50,[36],> 100 µM
same,TGI,[36],> 100 µM
same,GI50,[37],1.73 µM
same,TGI,[37],3.24 µM
same,GI50,[38],0.429 µM
same,TGI,[38],0.937 µM
same,GI50,[39],0.745 µM
same,TGI,[39],2.09 µM
same,GI50,[40],12 µM
same,TGI,[40],> 61.4 µM
same,GI50,[41],0.831 µM
same,TGI,[41],7.17 µM
same,GI50,[42],6.75 µM
same,TGI,[42],> 76.6 µM
same,GI50,[43],2.27 µM
same,TGI,[43],6.67 µM
same,GI50,[44],11.8 µM
same,TGI,[44],53.5 µM
same,GI50,[45],10.1 µM
same,TGI,[45],25.4 µM
same,GI50,[46],8.7 µM
same,TGI,[46],> 25.9 µM
same,GI50,[47],4.62 µM
same,TGI,[47],> 20.6 µM
same,GI50,[48],> 28.5 µM
same,TGI,[48],> 100 µM
same,GI50,[49],17.6 µM
same,TGI,[49],62.8 µM
same,TGI,[50],> 24.2 µM
same,GI50,[51],23.2 µM
same,TGI,[51],> 60.9 µM
same,GI50,[52],34.5 µM
same,TGI,[52],> 77.3 µM
same,GI50,[53],4.66 µM
same,TGI,[53],> 42.4 µM
same,GI50,[54],9.24 µM
same,TGI,[54],> 23.6 µM
same,GI50,[55],0.687 µM
same,TGI,[55],1.87 µM
same,GI50,[56],2.7 µM
same,TGI,[56],7.6 µM
same,GI50,[57],20.1 µM
same,TGI,[57],> 55.7 µM
same,GI50,[58],9.99 µM
same,TGI,[58],41.6 µM
